In paper PMC7415757, “Monocrotaline-induced liver toxicity in rat predicted by a combined in vitro physiologically based kinetic modeling approach” (Archives of Toxicology, 2020):
Like-named read-outs stand apart in the source and are kept apart here.

Tests used:
[1] = ref Chen et al. [2018], cited from earlier work
[2] = ref Chen et al. [2018]; cited from earlier work
[3] = test system: human liver cell line HepaRG; details: in vitro γH2AX induction potency, ref Louisse et al. ([2019]); cited from earlier work
[4] = ref Chen et al. [2018], cited from earlier work; remark: listed apart in the source
primary rat hepatocytes [5] = details: same model system; ref Chen et al. [2018]; read-out: EC50 cell viability; cited from earlier work
primary rat hepatocytes [6] = experiment: WST-1 cytotoxicity assay with primary rat hepatocytes; format: cell-based, rat (Sprague–Dawley); details: primary rat hepatocytes
Procedure: The monocrotaline-induced liver toxicity was tested in vitro using the WST-1 assay which measures the formazan formation by the metabolically active cells from WST-1. Pooled cryopreserved plateable male rat (Sprague–Dawley) hepatocytes (RTCP10™) were thawed and seeded in accordance with the manufacturer’s protocol. Briefly, cells were seeded in 96-well plates (Greiner bio-one, Alphen aan den Rijn, The Netherlands) at a concentration of 5 × 10^5 cells/ml to give 1.25 × 10^4 cells/well and incubated at 37 °C, 5% CO2 in a humidified atmosphere for 6 h to allow cell adherence. […] The solvent DMSO (0.5% (v/v) final concentration in exposure medium) was used as a negative control and triton X (final concentration 1% (v/v) in exposure medium) served as a positive control in all cytotoxicity assays. After exposure for 24 h, 5 μl (1:20 dilution) WST-1 reagent was added to each well and plates were incubated for an additional 1 h. Then, the plate was shaken at 1000 rpm for 1 min, and absorbance was measured at 440 nm (background absorbance at 620 nm was subtracted) using a SpectraMax M2 (Molecular Devices, Sunnyvale, USA).
Data are presented as mean values ± SE from three independent experiments with three different batches of rat hepatocytes. The cell viability was expressed as percentage of the solvent control, with the solvent control set at 100%. The obtained concentration–response curves for hepatotoxicity were fitted with a symmetrical sigmoidal model (Hill slope) which was further used to derive IC50 values using log [inhibitor] vs. normalized response using GraphPad Prism software (version 5.00 for Windows, GraphPad software, San Diego, USA).

[7] = ref Merz and Schrenk ([2016]); cited from earlier work
[8] = Substrate depletion in incubations with pooled rat liver microsomes; format: in vitro ADME, rat (Sprague–Dawley); details: liver microsomes versus intestinal microsomes
Procedure: After 5 min of pre-incubation in a shaking water bath at 37 °C, the reactions were started by the addition of 1 mM NADPH. The reactions were carried out for 1 h and 2 h for liver and intestinal microsomes, respectively. For each incubation, a corresponding control incubated in the absence of NADPH was included by adding buffer instead of NADPH. To stop the metabolic conversion, 100 µl of ice-cold methanol was added and the sample was put on ice, then centrifuged at 5000 × g for 20 min at 4 °C using a microcentrifuge (CT15RE, VWR, Leuven, Belgium). Supernatants were diluted 200 times in 90% (v/v) acetonitrile and transferred to LC–MS vials. LC–MS analysis was performed using a Shimadzu Nexera XR LC-20AD SR UPLC system in tandem with a Shimadzu LCMS-8040 mass spectrometer (Shimadzu, Kyoto, Japan). From each incubation, 1 µl of supernatant was loaded onto a Luna Omega polar C18 100A LC column (1.6 µm 100 × 2.1 mm, Phenomenex) fitted with a FP polar precolumn (Phenomenex), using a flow rate of 0.3 ml/min. The temperature was set at 40 °C and 5 °C for column and sample, respectively. The mobile phase consisted of ultrapure water (solvent A) and acetonitrile (solvent B) both containing 0.1% (v/v) formic acid. The gradient began with 100% solvent A (0% B) for 1 min to wash away unwanted salts, followed by a linear gradient from 0 to 5% B till 8 min and a further increase to 100% B in 2 min, keeping the elution at 100% B for 0.5 min, then the column was set back to the starting conditions and equlibrated for 3.4 min before the next injection. […] For all incubations, three independent replicates were performed.
The ratio of Vmax and Km was calculated as the in vitro catalytic efficiency (kcat) expressed in […]. […] The rat liver weight of 8.5 g and small intestine weight of 3.5 g (see Table 1) (Brown et al. [1997]) were used to scaled the in vivo kcat values to values expressed in ml/min/tissue.

[9] = ref Chen et al. [2018]; cited from earlier work; remark: listed apart in the source

| Structure (SMILES) | Km ([1]; liver) [µM] | Tissue/blood partition coefficient, fat (PF) [2] | Tissue/blood partition coefficient, liver (PL) [2] | Tissue/blood partition coefficient, richly perfused tissue (PR) [2] | Tissue/blood partition coefficient, slowly perfused tissue (PS) [2] | Tissue/blood partition coefficient, small intestine (PI) [2] | potency group [3] | Km ([4]; intestine) [µM] | EC50 (primary rat hepatocytes [5]) [µM] | times more toxic than monocrotaline in vitro (primary rat hepatocytes [6]) | further results |
| --- | --- | --- | --- | --- | --- | --- | --- | --- | --- | --- | --- |
| C/C=C(/C)C(=O)O[C@H]1CCN2CC=C(COC(=O)[C@@](O)([C@H](C)OC)C(C)(C)O)[C@H]12 [Lasiocarpine] | 19.5 | 2.44 | 0.88 | 0.88 | 0.48 | 0.88 | group 1 | 23.4 | 10.9 | 35.7 | – |
| C=C1C/C(=C/C)C(=O)O[C@@H]2CCN3CC=C(COC(=O)[C@@]1(O)CO)[C@H]23 [Riddelliine] | 75.7 | 0.44 | 0.77 | 0.77 | 0.43 | 0.77 | group 1 | 221 | 6.3 | 20.7 | pRPF (provisional relative potency factor) [7]: ~1.0; Scaled kcat ([1]; liver weight 8.5 g): 8.2 ml/min/ tissue; Scaled Vmax ([1]; liver): 73.5 nmol/min/g tissue; Scaled kcat ([1]; liver): 0.97 ml/min/g tissue; Vmax ([1]; liver): 2.1 nmol/min/mg microsomal protein; pRPF (provisional relative potency factor) [3]: 1; Scaled Vmax ([4]; intestine): 2.06 nmol/min/g tissue; Scaled kcat ([4]; intestine): 0.009 ml/min/g tissue; Vmax ([4]; intestine): 0.1 nmol/min/mg microsomal protein; Scaled kcat ([4]; small intestine weight 3.5 g): 0.03 ml/min/ tissue; in vivo scaled kcat (ml/min tissue) liver relative to intestine [8]: 253 times; Ka derived from Eq. 5 [9]: 1.17 h⁻¹ |
